The values below come from ChEMBL document CHEMBL1158189, “New taxane diterpenoids from the roots of Taxus mairei” (J Nat Prod, 1996).

≈ marks a conversion by molar mass, not a printed value.

Holding throughout (type): functional, cell-based
The nature of assay [1]: Cytotoxicity against human KB16 cells after 72 hrs. To be noted: KB16, 72 h.
For a further assay, the system named is P388. The assay can be described thus: Cytotoxicity against mouse P388 cells after 72 hrs. The following applies: P388, 72 h.
For a further assay, the system named is HT-29. The assay can be described thus: Cytotoxicity against human HT29 cells after 72 hrs. The following applies: HT-29, 72 h.
Another assay concerns A549. The assay can be described thus: Cytotoxicity against human A549 cells after 72 hrs. The following applies: A549, 72 h.

The IC50 is the concentration needed to halve the response being measured. A high value points to lower potency. For `CC(=O)O[C@H]1C[C@H]2[C@@H](OC(=O)c3ccccc3)[C@@H]3[C@](O)(CO)[C@@H](OC(C)=O)C[C@H](OC(C)=O)[C@@]3(C)[C@@H](OC(C)=O)[C@H](OC(C)=O)C(=C1C)C2(C)C`, the IC50 in assay [1] turned out to be 1 µg/mL (≈ 1.4 µM); in the assay with P388, 2.4 µg/mL (≈ 3.35 µM); in the assay with HT-29 it was 1.4 µg/mL (≈ 1.95 µM); in the assay on A549, 4.8 µg/mL (≈ 6.7 µM).

Regarding `CC(=O)O[C@H]1C[C@H]2[C@@H](O)[C@@H]3[C@](O)(COC(=O)c4ccccc4)[C@@H](OC(C)=O)C[C@H](OC(C)=O)[C@@]3(C)[C@@H](OC(C)=O)[C@H](OC(C)=O)C(=C1C)C2(C)C` [TAXUMAIROL A], the IC50 in assay [1] came out at 0.4 µg/mL (≈ 0.558 µM); in the assay on P388 it was 0.05 µg/mL (≈ 0.0698 µM); with HT-29 it was 1 µg/mL (≈ 1.4 µM); with A549 it was 1.7 µg/mL (≈ 2.37 µM).

With `CC(=O)O[C@H]1C[C@@]2(O)[C@@H](OC(C)=O)[C@@H]3[C@@]4(CO4)[C@@H](OC(C)=O)C[C@H](O)[C@@]3(C)[C@@H](O)[C@H](OC(C)=O)C(=C1C)C2(C)C` [TAXUMAIROL B], the IC50 in assay [1] is 1.4 µg/mL (≈ 2.46 µM); with P388, more than 50 µg/mL; with HT-29, more than 50 µg/mL; with A549 it was more than 50 µg/mL.
